Reference: US10376481B2, “Compounds and methods for inhibiting NHE-mediated antiport in the treatment of disorders associated with fluid retention or salt overload and gastrointestinal tract disorders” (ARDELYX, INC, priority 2012, dated 2019)

Key:
[1] = tested on: tight junction permeability, human duodenum monolayer culture; test: Increased trans-epithelial resistance (TEER) in human organoid monolayer cell cultures; type: cell-based; details: 1 μM apical, baseline corrected
Protocol: (§1) Basal media (BM) consisted of advanced DMEM/F12 containing 10 mM HEPES (Invitrogen, 15630-080), 1:100 Glutamax (Invitrogen, 35050-061), and 1:100 penicillin/streptomycin (Invitrogen, 15140-122). […] Growth factors used included 50 ng per mL mouse EGF (Peprotech, 315-09), 100 ng per mL mouse noggin (Peprotech, 250-38), 500 ng per mL human R-spondin 1 (R&D, 4645-RS), 100 ng per mL mouse Wnt-3a (R&D, 1324-WN), 20 μM Y-27632 (Tocris, 1254), 10 mM nicotinamide (Sigma, N0636), 500 nM A83-01 (Tocris, 2939), 10 μM SB202190 (Tocris, 1264). Transwells were 0.4 μm pore polyester membrane 24-well Transwell inserts (Corning). Cultures were incubated at 37° C. in 5% CO2.
Human duodenum organoids were cultured in WENRNAS (Wnt, EGF, noggin, R-spondin1, Nicotinamide, A83-01, SB202190) and typically grown for 7-12 days before being used to plate monolayer cultures. […]
Each human duodenum monolayer culture well was washed twice with fresh SBM on the apical side on day 6 or day 7 before dosing. […] Transepithelial electrical resistance (TEER) was used as a quantitative technique to measure of tight junction permeability. TEER values were recorded (MERS00002, Millipore) before dosing and 30 mins and 1 hr after dosing for all wells. […] Baseline corrected TEER for each example compound was compared to the average of the DMSO wells and expressed as a percent TEER of vehicle control.

[2] = tested on: apical acid secretion, human duodenum monolayer culture; test: Sustained inhibition of apical acid secretion in human organoid monolayer cell cultures (duodenum); type: cell-based; details: 1 μM apical dosing, inhibition of apical acid secretion vs DMSO
[3] = tested on: apical acid secretion, human ileum monolayer culture; test: Sustained inhibition of apical acid secretion in human organoid monolayer cell cultures (ileum); type: cell-based; details: 1 μM apical dosing day 6, apical media pH day 8, inhibition of apical acid secretion vs DMSO
Protocol: as §1
Human ileum organoids were cultured in WENRNAS (Wnt, EGF, noggin, R-spondin1, Nicotinamide, A83-01, SB202190) and typically grown for 7-12 days before being used to plate monolayer cultures. On day 0, organoid cultures embedded in Matrigel were treated with TrypLE Express to break organoids into small pieces and/or single cells. […]
Each human ileum monolayer culture well was washed twice with fresh SBM on the apical side on day 6 before compound dosing. […] On day 8, apical media pH was measured by pH meter, to determine the ability of example compounds to produce sustained inhibition of NHE3 activity in a human monolayer culture system by preventing proton secretion into the apical compartment.

Plasma PK = type: in vivo, Sprague-Dawley rats; details: Sprague-Dawley, rat plasma, oral gavage, nominal dose 15 mg/kg, mean of n=3
Protocol: Sprague-Dawley rats (n=3) were dosed with test compound by oral gavage. Blood samples were collected at 0.5, 1, 2 and 4 h by retro-orbital bleeds and processed to plasma using K2EDTA as an anticoagulant. Plasma samples were treated with acetonitrile containing an internal standard and precipitated proteins were removed by centrifugation. Supernatants were analyzed by LC-MS/MS and compound concentrations were determined by interpolation from a standard calibration curve prepared in plasma. Accurate recovery of quality control samples was confirmed to accept each analytical run. Table 5 illustrates data from the pharmacokinetic profiling of an example compound, for which pharmacokinetic parameters were determined.

Cmax (Plasma PK; LLOQ 0.2 ng/mL): 1 ng/mL
AUC (Plasma PK; samples 0.5-4 h): < 3 ng·h/mL
SMILES: CN(C)[C@H]1Cc2c(Cl)cc(Cl)cc2[C@@H]1Oc1ccc(S(=O)(=O)NCCOCCOCCNC(=O)NCCCCNC(=O)NCCOCCOCCNS(=O)(=O)c2ccc(O[C@H]3c4cc(Cl)cc(Cl)c4C[C@@H]3N(C)C)cc2)cc1 [Example 1, (S,S)—N,N′-(10,17-dioxo-3,6,21,24-tetraoxa-9,11,16,18-tetraazahexacosane-1,26-diyl)bis(4-((1S,2S)-4,6-dichloro-2-(dimethylamino)-2,3-dihydro-1H-inden-1-yloxy)benzenesulfonamide)]
TEER at 30 minutes (% of Vehicle) ([1]; 30 mins after dosing): B (100-130%)
TEER at 60 minutes (% of Vehicle) ([1]; 1 hr after dosing): B (100-130%)
% inhibition (duodenum) [2]: C (>70%)
% inhibition (ileum) [3]: B (50-70%)
